Test results taken from patent US20150038438A1, “ANTIBACTERIAL COMPOUNDS AND METHODS FOR USE” (PTC THERAPEUTICS, INC., priority 2011, published 2015).
≈ marks a conversion by molar mass, not a printed value. Where a name gives a salt, the structure may show the parent alone. Read-outs that look alike come from different tables or passages of the source.

What was measured:
Assay in all cases: Antibacterial activity, microbroth dilution method (MIC)
[1] = tested on: control Gram-negative E. coli 25922 strain; format: cell-based, Escherichia coli; settings: Escherichia coli
Excerpt: (§1) The antibacterial activity from a microbroth dilution method may be presented as the minimum inhibitory concentration (MIC in μg/mL). The MIC value is the lowest concentration of drug which prevents macroscopically visible growth under test conditions.
(§2) Antibacterial activity of test compounds against the super sensitive Gram-negative Escherichia coli (E. coli) BAS849 bacterium, the control Gram-negative E. coli 25922 strain and the Gram-positive Staphylococcus aureus (S. aureus) 29213 bacterium are shown in Table 1.

[2] = tested on: Gram-positive Staphylococcus aureus (S. aureus) 29213; format: cell-based; settings: Staphylococcus aureus, Gram-positive S. aureus 29213
Excerpt: as §1, §2

[3] = tested on: super sensitive Gram-negative Escherichia coli (E. coli) BAS849; format: cell-based; settings: Escherichia coli, read-out: MIC, E. coli BAS849
Excerpt: as §1, §2

[4] = super sensitive Gram-negative E. coli BAS849, microbroth dilution

| Structure (SMILES) | MIC [1] | MIC [2] | MIC [3, 4] | MIC [3] |
| --- | --- | --- | --- | --- |
| Cl.Cn1c(CNCc2cccnc2)cc2cc3c(cc21)CCCc1c-3[nH]c(=O)c(C(=O)O)c1O [Cpd 52, 4-hydroxy-9-methyl-2-oxo-10-(((pyridin-3-ylmethyl)amino)methyl)-1,2,5,6,7,9-hexahydropyrido[3′,2′:6,7]cyclohepta[1,2-f]indole-3-carboxylic acid hydrochloride] | 3.5 to 12.5 µg/mL | 3.5 to 12.5 µg/mL | < 1 µg/mL |  |
| CC(C)NCc1cc2cc3c(cc2n1C)CCCc1cc(C(=O)O)c(=O)[nH]c1-3.Cl [Cpd 55, 10-((isopropylamino)methyl)-9-methyl-2-oxo-1,2,5,6,7,9-hexahydropyrido[3′,2′:6,7]cyclohepta[1,2-f]indole-3-carboxylic acid hydrochloride] | 1 to 3.5 µg/mL | 12.5 to 150 µg/mL | < 1 µg/mL |  |
| Cl.Cn1c(CNCC2CCCO2)cc2cc3c(cc21)CCCc1c-3[nH]c(=O)c(C(=O)O)c1O (stereo not drawn) [Cpd 161, 4-hydroxy-9-methyl-2-oxo-10-((((tetrahydrofuran-2-yl)methyl)amino)methyl)-1,2,5,6,7,9-hexahydropyrido[3′,2′:6,7]cyclohepta[1,2-f]indole-3-carboxylic acid hydrochloride] | 1 to 3.5 µg/mL | 12.5 to 150 µg/mL | < 1 µg/mL |  |
| Cl.Cl.Cn1c(CNCCN2CCCC2)cc2cc3c(cc21)CCCc1c-3[nH]c(=O)c(C(=O)O)c1O [Cpd 152, 4-hydroxy-9-methyl-2-oxo-10-(((2-(pyrrolidin-1-yl)ethyl)amino)methyl)-1,2,5,6,7,9-hexahydropyrido[3′,2′:6,7]cyclohepta[1,2-f]indole-3-carboxylic acid dihydrochloride] | 3.5 to 12.5 µg/mL | 12.5 to 150 µg/mL | < 1 µg/mL |  |
| CN(C)C(=O)CNCc1cc2cc3c(cc2n1C)CCCc1c-3[nH]c(=O)c(C(=O)O)c1O.Cl [Cpd 163, 10-(((2-(dimethylamino)-2-oxoethyl)amino)methyl)-4-hydroxy-9-methyl-2-oxo-1,2,5,6,7,9-hexahydropyrido[3′,2′:6,7]cyclohepta[1,2-f]indole-3-carboxylic acid hydrochloride] | 3.5 to 12.5 µg/mL | 12.5 to 150 µg/mL | < 1 µg/mL |  |
| CCNCCc1cc2cc3c(cc2n1C)C=CCc1c-3[nH]c(=O)c(C(=O)O)c1O.O=C(O)C(F)(F)F [Cpd 164, 10-(2-(ethylamino)ethyl)-4-hydroxy-9-methyl-2-oxo-1,2,5,9-tetrahydropyrido[3′,2′:6,7]cyclohepta[1,2-f]indole-3-carboxylic acid trifluoroacetate] | 1 to 3.5 µg/mL | 12.5 to 150 µg/mL |  | < 1 µg/mL |
| CC1Cc2cc(N3C[C@@H]4[C@@H](N)[C@@H]4C3)ccc2-c2[nH]c(=O)c(C(=O)O)c(O)c21 (stereo partly drawn) [Cpd 110, 8-((cis,cis)-6-amino-3-azabicyclo[3.1.0]hexan-3-yl)-4-hydroxy-5-methyl-2-oxo-1,2,5,6-tetrahydrobenzo[h]quinoline-3-carboxylic acid trifluoroacetate] | 12.5 to 150 µg/mL | 12.5 to 150 µg/mL |  | 3.5 to 12.5 µg/mL |
| CCn1c2c(c(O)c(C(=O)O)c1=O)CC=Cc1cc3c(ccn3C)cc1-2 [Cpd 132, 1-ethyl-4-hydroxy-9-methyl-2-oxo-1,2,5,9-tetrahydropyrido[3′,2′:6,7]cyclohepta[1,2-f]indole-3-carboxylic acid] | 12.5 to 150 µg/mL (≈ 35.7 to 428 µM) | 3.5 to 12.5 µg/mL (≈ 9.99 to 35.7 µM) | 3.5 to 12.5 µg/mL (≈ 9.99 to 35.7 µM) |  |
| CN(C)CCNc1ccc2c(c1)CCCc1c-2[nH]c(=O)c(C(=O)O)c1O.Cl [Cpd 113, 9-((2-(dimethylamino)ethyl)amino)-4-hydroxy-2-oxo-2,5,6,7-tetrahydro-1H-benzo[6,7]cyclohepta[1,2-b]pyridine-3-carboxylic acid hydrochloride] | 12.5 to 150 µg/mL | 12.5 to 150 µg/mL | 3.5 to 12.5 µg/mL |  |
| CCCCCCNCc1cc2cc3c(cc2n1C)CCCc1c-3[nH]c(=O)c(C(=O)O)c1O.Cl [Cpd 138, 10-((hexylamino)methyl)-4-hydroxy-9-methyl-2-oxo-1,2,5,6,7,9-hexahydropyrido[3′,2′:6,7]cyclohepta[1,2-f]indole-3-carboxylic acid hydrochloride] | 1 to 3.5 µg/mL | 1 to 3.5 µg/mL | < 1 µg/mL |  |
| COC1CCN(Cc2cc3cc4c(cc3n2C)CCCc2c-4[nH]c(=O)c(C(=O)O)c2O)C1.Cl (stereo not drawn) [Cpd 158, 4-hydroxy-10-((3-methoxypyrrolidin-1-yl)methyl)-9-methyl-2-oxo-1,2,5,6,7,9-hexahydropyrido[3′,2′:6,7]cyclohepta[1,2-f]indole-3-carboxylic acid hydrochloride] | 1 to 3.5 µg/mL | 3.5 to 12.5 µg/mL | < 1 µg/mL |  |
| Cl.Cn1c(CN2CC[C@@H](F)C2)cc2cc3c(cc21)CCCc1c-3[nH]c(=O)c(C(=O)O)c1O [Cpd 46, (R)-10-((3-fluoropyrrolidin-1-yl)methyl)-4-hydroxy-9-methyl-2-oxo-1,2,5,6,7,9-hexahydropyrido[3′,2′:6,7]cyclohepta[1,2-f]indole-3-carboxylic acid hydrochloride] | 1 to 3.5 µg/mL | 3.5 to 12.5 µg/mL | < 1 µg/mL |  |
| CC(CN(C)C)NCc1cc2cc3c(cc2n1C)CCCc1c-3[nH]c(=O)c(C(=O)O)c1O.Cl.Cl (stereo not drawn) [Cpd 160, 10-(((1-(dimethylamino)propan-2-yl)amino)methyl)-4-hydroxy-9-methyl-2-oxo-1,2,5,6,7,9-hexahydropyrido[3′,2′:6,7]cyclohepta[1,2-f]indole-3-carboxylic acid dihydrochloride] | 3.5 to 12.5 µg/mL | 12.5 to 150 µg/mL | < 1 µg/mL |  |
| CC1CCc2cc(N3C[C@@H]4[C@@H](N)[C@@H]4C3)ccc2-c2[nH]c(=O)c(C(=O)O)c(O)c21 (stereo partly drawn) [Cpd 13, 9-((cis,cis)-6-amino-3-azabicyclo[3.1.0]hexan-3-yl)-4-hydroxy-5-methyl-2-oxo-2,5,6,7-tetrahydro-1H-benzo[6,7]cyclohepta[1,2-b]pyridine-3-carboxylic acid hydrochloride] | 1 to 3.5 µg/mL | 3.5 to 12.5 µg/mL | < 1 µg/mL |  |
| CN1CCC(NCc2cc3cc4c(cc3n2C)CCCc2c-4[nH]c(=O)c(C(=O)O)c2O)CC1.Cl.Cl [Cpd 157, 4-hydroxy-9-methyl-10-(((1-methylpiperidin-4-yl)amino)methyl)-2-oxo-1,2,5,6,7,9-hexahydropyrido[3′,2′:6,7]cyclohepta[1,2-f]indole-3-carboxylic acid dihydrochloride] | 1 to 3.5 µg/mL | 12.5 to 150 µg/mL | < 1 µg/mL |  |
| Cl.O=C(O)c1c(O)c2c([nH]c1=O)-c1ccc(N3CCC4(CNC4)C3)cc1CCC2 [Cpd 121, 4-hydroxy-2-oxo-9-(2,6-diazaspiro[3.4]octan-6-yl)-2,5,6,7-tetrahydro-1H-benzo[6,7]cyclohepta[1,2-b]pyridine-3-carboxylic acid hydrochloride] | 12.5 to 150 µg/mL | 12.5 to 150 µg/mL | 3.5 to 12.5 µg/mL |  |
| Cl.Cn1c(CNCCO)cc2cc3c(cc21)OCCc1c-3[nH]c(=O)c(C(=O)O)c1O [Cpd 177, 4-hydroxy-10-(((2-hydroxyethyl)amino)methyl)-9-methyl-2-oxo-2,5,6,9-tetrahydro-1H-pyrido[2′,3′:4,5]oxepino[3,2-f]indole-3-carboxylic acid hydrochloride] | 12.5 to 150 µg/mL | 12.5 to 150 µg/mL | < 1 µg/mL |  |
| CC(C)NCc1cc2cc3c(cc2n1C)NCCc1c-3[nH]c(=O)c(C(=O)O)c1O.Cl [Cpd 101, 4-hydroxy-10-((isopropylamino)methyl)-9-methyl-2-oxo-1,2,5,6,7,9-hexahydropyrido[2′,3′:4,5]azepino[3,2-f]indole-3-carboxylic acid hydrochloride] | 3.5 to 12.5 µg/mL | 12.5 to 150 µg/mL | 1 to 3.5 µg/mL |  |
| CC1CC1CNCc1cc2cc3c(cc2n1C)CCCc1c-3[nH]c(=O)c(C(=O)O)c1O.Cl (stereo not drawn) [Cpd 38, 4-hydroxy-9-methyl-10-((((2-methylcyclopropyl)methyl)amino)methyl)-2-oxo-1,2,5,6,7,9-hexahydropyrido[3′,2′:6,7]cyclohepta[1,2-f]indole-3-carboxylic acid hydrochloride] | 1 to 3.5 µg/mL | 3.5 to 12.5 µg/mL | < 1 µg/mL |  |
| CC1Cc2cc(N3CCC(N(C)C)C3)ccc2-c2[nH]c(=O)c(C(=O)O)c(O)c21.Cl (stereo not drawn) [Cpd 109, 8-(3-(dimethylamino)pyrrolidin-1-yl)-4-hydroxy-5-methyl-2-oxo-1,2,5,6-tetrahydrobenzo[h]quinoline-3-carboxylic acid hydrochloride] | 12.5 to 150 µg/mL | 12.5 to 150 µg/mL | 3.5 to 12.5 µg/mL |  |
| CN(C)c1ccc2c(c1)CCCc1cc(C(=O)O)c(=O)[nH]c1-2 [Cpd 2, 9-(dimethylamino)-2-oxo-2,5,6,7-tetrahydro-1H-benzo[6,7]cyclohepta[1,2-b]pyridine-3-carboxylic acid] | 12.5 to 150 µg/mL (≈ 41.9 to 503 µM) | 12.5 to 150 µg/mL (≈ 41.9 to 503 µM) | < 1 µg/mL |  |
| Cl.Cl.Cn1c(CN2CCC(N)CC2)cc2cc3c(cc21)CCCc1c-3[nH]c(=O)c(C(=O)O)c1O [Cpd 29, 10-((4-aminopiperidin-1-yl)methyl)-4-hydroxy-9-methyl-2-oxo-1,2,5,6,7,9-hexahydropyrido[3′,2′:6,7]cyclohepta[1,2-f]indole-3-carboxylic acid dihydrochloride] | 1 to 3.5 µg/mL | 12.5 to 150 µg/mL | < 1 µg/mL |  |
| CC1Oc2cc(Cl)ccc2-c2c1cc(C(=O)O)c(=O)n2Cc1ccccc1 (stereo not drawn) [Cpd 72, 1-benzyl-8-chloro-5-methyl-2-oxo-2,5-dihydro-1H-chromeno[4,3-b]pyridine-3-carboxylic acid] | 12.5 to 150 µg/mL (≈ 32.7 to 393 µM) | 3.5 to 12.5 µg/mL (≈ 9.17 to 32.7 µM) | 3.5 to 12.5 µg/mL (≈ 9.17 to 32.7 µM) |  |
| CCNCc1cc2cc3c(cc2n1C)NCCCc1c-3[nH]c(=O)c(C(=O)O)c1O.Cl [Cpd 104, 11-((ethylamino)methyl)-4-hydroxy-10-methyl-2-oxo-2,5,6,7,8,10-hexahydro-1H-pyrido[2′,3′:4,5]azocino[3,2-f]indole-3-carboxylic acid hydrochloride] | 3.5 to 12.5 µg/mL | 12.5 to 150 µg/mL | 1 to 3.5 µg/mL |  |
